From ChEMBL document CHEMBL4014262, “Phloroglucinol Derivatives with Protein Tyrosine Phosphatase 1B Inhibitory Activities from Eugenia jambolana Seeds” (J Nat Prod, 2017)

Biological target: T1, Tyrosine-protein phosphatase non-receptor type 1 (Homo sapiens, UniProt P18031)
T1 sequence (P18031 whole entry): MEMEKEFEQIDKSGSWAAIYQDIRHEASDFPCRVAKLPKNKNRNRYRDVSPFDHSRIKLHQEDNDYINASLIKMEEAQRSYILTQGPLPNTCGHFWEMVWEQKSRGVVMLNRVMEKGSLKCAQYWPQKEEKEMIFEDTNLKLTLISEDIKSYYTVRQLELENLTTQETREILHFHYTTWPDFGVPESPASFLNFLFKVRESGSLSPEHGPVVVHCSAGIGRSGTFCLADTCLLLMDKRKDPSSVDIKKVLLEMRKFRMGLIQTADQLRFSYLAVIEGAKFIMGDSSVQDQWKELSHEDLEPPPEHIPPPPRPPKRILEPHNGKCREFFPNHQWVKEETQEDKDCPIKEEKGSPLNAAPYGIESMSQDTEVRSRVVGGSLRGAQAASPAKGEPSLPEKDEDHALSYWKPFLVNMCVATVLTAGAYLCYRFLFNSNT
Assay: Inhibition of GST-tagged PTP1B (1 to 321 residues) (unknown origin) using p-NPP as substrate preincubated for 10 mins followed by substrate addition measured after 30 mins

Row | SMILES | IC50
1 | CCCCC/C=C\C/C=C\CCCCCCCC1(O)CC(=O)c2c(O)c(C)c(O)c(C)c2O1 (stereo unspecified) | 2700 nM
2 | CCCC/C=C\CCCCCCCCCC1(O)CC(=O)c2c(O)c(C)c(O)c(C)c2O1 (stereo unspecified) | 1800 nM

More lines, in order of falling IC50, values ahead:

Row | IC50 | SMILES
3 | 2000 nM | CCCCCCCCCCCCCCCC1(O)CC(=O)c2c(O)cc(O)cc2O1 (stereo unspecified)
4 | 1600 nM | CC/C=C\C/C=C\C/C=C\CCCCCCCC1(O)CC(=O)c2c(O)c(C)c(O)c(C)c2O1 (stereo unspecified)
5 | 450 nM | CC/C=C\C/C=C\C/C=C\CCCCCCCC1(O)CC(=O)c2c(O)cc(O)cc2O1 (stereo unspecified)
6 | 420 nM | CCCCC/C=C\C/C=C\CCCCCCCC1(O)CC(=O)c2c(O)cc(O)cc2O1 (stereo unspecified)
